Experimental data as given in patent publication US7671054B1, “Reverse-turn mimetics and method relating thereto” (Choongwae Pharma Corporation, priority 2001, dated 2010).
Read-outs that look alike come from different tables or passages of the source.

How the values were obtained:
Format in all cases: cell-based
SW480 cells = experiment: Growth inhibition assay (MTS); details: Homo sapiens, Table 5, SW480 cells, 48 hours treatment, MTS, read-out: Growth Inhibition (GI50, uM) SW480
Summary of the method: (§1)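 Cells seeded at 10^4 per well, grown 24 h at 37° C, then exposed to compound at various concentrations for 48 hours. MTS added for 2 h; absorbance at 490 nm gave viability, with cytotoxicity calculated per concentration against pre-treatment reading.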

HCT116 cells = experiment: Growth inhibition assay (MTS); details: Homo sapiens, Table 5, HCT116 cells, 48 hours treatment, MTS, read-out: Growth Inhibition (GI50, uM) HCT116
Summary of the method: as §1

[1] = tested on: TCF4/β-catenin transcription (TOPFlash) in SW480 cells; experiment: Reporter gene assay (TOPFlash luciferase); details: Homo sapiens, SW480, Table 4; Reporter gene assay as described in Example 6; read-out: IC50
Summary of the method: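 SW480 cells transiently co-transfected with TOPFlash and pRL-null (4:1 µg) using Superfect, then reseeded at 3×10^4 cells/well and incubated overnight at 37 °C. Compound treatment lasted 24 h before luciferase read-out.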

Survivin = experiment: Effect on survivin expression (Table 9)
Excerpt: (§2) The effects of various compounds having general formula (I) on survivin and TCF4 expression were characterized.

TCF4 = experiment: Effect on TCF4 expression (Table 9)
Excerpt: as §2

SMILES | inhibition at 5 µM (Survivin) | inhibition at 25 µM (Survivin) | IC50 (TCF4) | also measured
CN1CC(=O)N2C(CN(Cc3cc(F)c(F)c(F)c3)C(=O)[C@@H]2Cc2ccc(O)cc2)N1C(=O)NCc1ccccc1 (stereo in doubt) [Compound 16] | – | – | – | GI50 (SW480 cells; SW480, 48 h): 4.18 µM; GI50 (HCT116 cells; HCT-116, 48 h): 2.95 µM; IC50 [1]: 3.8 µM
Cc1cccc(CN2C[C@@H]3N(C(=O)CN(C)N3C(=O)NCc3ccccc3)[C@@H](Cc3ccc(O)cc3)C2=O)c1N(C)C | 0% | 68% | 10.9 ± 1.3 µM | –
CN1CC(=O)N2[C@@H](CN(Cc3cccc4c3ncn4C)C(=O)[C@@H]2Cc2ccc(O)cc2)N1C(=O)NCc1ccccc1 | 45% | 88% | 13.2 ± 4.1 µM | –
Cc1c(CN2C[C@@H]3N(C(=O)CN(C)N3C(=O)NCc3ccccc3)[C@@H](Cc3ccc(O)cc3)C2=O)cccc1N(C)C | 48% | 96% | 3.9 ± 0.55 µM | –
CN(C)c1cc(CN2C[C@@H]3N(C(=O)CN(C)N3C(=O)NCc3ccccc3)[C@@H](Cc3ccc(O)cc3)C2=O)ccc1Cl | 0% | 92% | 7.3 ± 0.6 µM | –
Cc1cc(C)c(N(C)C)c(CN2C[C@@H]3N(C(=O)CN(C)N3C(=O)NCc3ccccc3)[C@@H](Cc3ccc(O)cc3)C2=O)c1 | 0% | 84% | 4.8 ± 0.4 µM | –
CN(C)c1cc(F)ccc1CN1C[C@@H]2N(C(=O)CN(C)N2C(=O)NCc2ccccc2)[C@@H](Cc2ccc(O)cc2)C1=O | 79% | 81% | 1.7 ± 0.2 µM | –
CC(C)N(C)c1ccccc1CN1C[C@@H]2N(C(=O)CN(C)N2C(=O)NCc2ccccc2)[C@@H](Cc2ccc(O)cc2)C1=O | 27% | 98% | 10.7 ± 1.7 µM | –
COc1cccc(CN2C[C@@H]3N(C(=O)CN(C)N3C(=O)NCc3ccccc3)[C@@H](Cc3ccc(O)cc3)C2=O)c1N(C)C | 9% | 92% | 5.9 ± 0.5 µM | –
CN1CC(=O)N2[C@@H](CN(Cc3ccc(F)cc3C(F)(F)F)C(=O)[C@@H]2Cc2ccc(O)cc2)N1C(=O)NCc1ccccc1 | 0% | 80% | 1.3 ± 0.1 µM | –
CN1CC(=O)N2[C@@H](CN(Cc3c(Cl)ccc4cccnc34)C(=O)[C@@H]2Cc2ccc(O)cc2)N1C(=O)NCc1ccccc1 | 0% | 32% | 50.4 ± 7 µM | –
CC(C)N(C)c1ccc(Cl)c(CN2C[C@@H]3N(C(=O)CN(C)N3C(=O)NCc3ccccc3)[C@@H](Cc3ccc(O)cc3)C2=O)c1 | 25% | 44% | 27.1 ± 4.6 µM | –
CN(C)c1ccc(Cl)cc1CN1C[C@@H]2N(C(=O)CN(C)N2C(=O)NCc2ccccc2)[C@@H](Cc2ccc(O)cc2)C1=O | 0% | 93% | 2.2 ± 0.2 µM | –
Cc1ccc(N(C)C(C)C)c(CN2C[C@@H]3N(C(=O)CN(C)N3C(=O)NCc3ccccc3)[C@@H](Cc3ccc(O)cc3)C2=O)c1 | 14% | 99% | 10.7 ± 1.9 µM | –
CN(C)c1cc(F)c(F)cc1CN1C[C@@H]2N(C(=O)CN(C)N2C(=O)NCc2ccccc2)[C@@H](Cc2ccc(O)cc2)C1=O | 9% | 91% | 1.4 ± 0.2 µM | –
CN(C)c1cc(Cl)ccc1CN1C[C@@H]2N(C(=O)CN(C)N2C(=O)NCc2ccccc2)[C@@H](Cc2ccc(O)cc2)C1=O | 6% | 89% | 13.9 ± 2.3 µM | –
CCN(C)c1cccc(CN2C[C@@H]3N(C(=O)CN(C)N3C(=O)NCc3ccccc3)[C@@H](Cc3ccc(O)cc3)C2=O)c1 | 46% | 96% | 4.4 ± 0.6 µM | –
CN(C)c1ccccc1CN1C[C@@H]2N(C(=O)CN(C)N2C(=O)NCc2ccccc2)[C@@H](Cc2ccc(O)cc2)C1=O | 41% | 92% | 5.2 ± 0.7 µM | –
Cc1cccc(N(C)C)c1CN1C[C@@H]2N(C(=O)CN(C)N2C(=O)NCc2ccccc2)[C@@H](Cc2ccc(O)cc2)C1=O | 8% | 4% | – | –

SMILES | inhibition at 5 µM (Survivin) | inhibition at 25 µM (Survivin) | IC50 (TCF4) | also measured
CN1CC(=O)N2C(Cc3ccc(O)cc3)C(=O)N(Cc3ccc(F)cc3F)CC2N1C(=O)NCc1ccccc1 (stereo not shown) | 51% | 93% | ~6.3 µM | –
CN1CC(=O)N2[C@@H](CN(Cc3cccc4cn[nH]c34)C(=O)[C@@H]2Cc2ccc(O)cc2)N1C(=O)NCc1ccccc1 | 80% | 97% | 4.6 ± 0.7 µM | –
CN1CC(=O)N2[C@@H](CN(Cc3ccc(Cl)c4cccnc34)C(=O)[C@@H]2Cc2ccc(O)cc2)N1C(=O)NCc1ccccc1 | 86% | 91% | 2.6 ± 0.6 µM | –
CN1CC(=O)N2[C@@H](CN(Cc3cccc4cnn(C)c34)C(=O)[C@@H]2Cc2ccc(O)cc2)N1C(=O)NCc1ccccc1 | 82% | 97% | 2.8 ± 0.4 µM | –
CN1CC(=O)N2C(Cc3ccc(O)cc3)C(=O)N(Cc3cccc4cccnc34)CC2N1C(=O)NCc1ccccc1 (stereo not shown) | 97% | 100% | ~2.2 µM | –
CN(C)c1c(Cl)cccc1CN1C[C@@H]2N(C(=O)CN(C)N2C(=O)NCc2ccccc2)[C@@H](Cc2ccc(O)cc2)C1=O | 0% | 21% | 7.3 ± 1.1 µM | –
CC(C)N(C)c1cccc(CN2C[C@@H]3N(C(=O)CN(C)N3C(=O)NCc3ccccc3)[C@@H](Cc3ccc(O)cc3)C2=O)c1 | 5% | 91% | 6.3 ± 0.431 µM | –
CN(C)c1cccc(F)c1CN1C[C@@H]2N(C(=O)CN(C)N2C(=O)NCc2ccccc2)[C@@H](Cc2ccc(O)cc2)C1=O | 0% | 6% | 18.2 ± 2.4 µM | –
Cc1ccc(N(C)C)c(CN2C[C@@H]3N(C(=O)CN(C)N3C(=O)NCc3ccccc3)[C@@H](Cc3ccc(O)cc3)C2=O)c1 | 0% | 94% | 2.6 ± 0.4 µM | –
CN1CC(=O)N2[C@@H](Cc3ccc(O)cc3)C(=O)N(Cc3c(Cl)cc(Cl)c4cccnc34)C[C@@]2(C)N1C(=O)NCc1ccccc1 | 6% | 58% | 11.2 ± 1.5 µM | –
CN(C)c1c(CN2C[C@@H]3N(C(=O)CN(C)N3C(=O)NCc3ccccc3)[C@@H](Cc3ccc(O)cc3)C2=O)cccc1C(F)(F)F | 0% | 91% | 5.2 ± 1.1 µM | –
C#CCN1CC(=O)N2[C@@H](Cc3ccc(O)cc3)C(=O)N(Cc3cccc(N4CCOCC4)c3)C[C@@H]2N1C(=O)NCc1ccccc1 [Compound 91] | – | – | – | GI50 (SW480 cells; SW480, 48 h): 1.5 ± 0.1 µM; GI50 (HCT116 cells; HCT-116, 48 h): 3.2 ± 0.2 µM
CC(C)N(C)c1cc([C@@H](C)N2C[C@H]3N(C(=O)CN(C)N3C(=O)NCc3ccccc3)[C@@H](Cc3ccc(O)cc3)C2=O)ccc1F [Compound 39] | – | – | – | GI50 (SW480 cells; SW480, 48 h): 22.8 ± 6.5 µM; GI50 (HCT116 cells; HCT-116, 48 h): 19.7 ± 3.3 µM
CCN(CC)c1cccc(CN2C[C@H]3N(C(=O)CN(C)N3C(=O)NCc3ccccc3)[C@@H](Cc3ccc(O)cc3)C2=O)c1 [Compound 26] | – | – | – | GI50 (SW480 cells; SW480, 48 h): 23.9 µM; GI50 (HCT116 cells; HCT-116, 48 h): 3.06 µM
C[C@H](c1ccc(F)c(N(C)C)c1)N1C[C@H]2N(C(=O)CN(C)N2C(=O)NCc2ccccc2)[C@@H](Cc2ccc(O)cc2)C1=O [Compound 37] | – | – | – | GI50 (SW480 cells; SW480, 48 h): 10.4 ± 0.8 µM; GI50 (HCT116 cells; HCT-116, 48 h): 9.2 ± 0.9 µM
C=CCN1CC(=O)N2[C@@H](Cc3ccc(OP(=O)(O)O)cc3)C(=O)N(Cc3ccc(Cl)c(N(C)C)c3)C[C@@H]2N1C(=O)NCc1ccccc1 [Compound 131] | – | – | – | GI50 (SW480 cells): 2.3 ± 0.1 µM; GI50 (HCT116 cells; HCT-116): 1.7 ± 0.5 µM
C=CCN1CC(=O)N2[C@@H](Cc3ccc(O)cc3)C(=O)N(Cc3cccc4sc(N5CCOCC5)nc34)C[C@@H]2N1C(=O)NCc1ccccc1 [Compound 189] | – | – | – | GI50 (SW480 cells; SW480, 48 h): 1 ± 0.1 µM; GI50 (HCT116 cells; HCT-116, 48 h): 1.2 ± 0.1 µM
C#CCN1CC(=O)N2[C@@H](Cc3ccc(O)cc3)C(=O)N(Cc3ccc(Cl)c4cccnc34)C[C@@H]2N1C(=O)NCc1ccccc1 [Compound 110] | – | – | – | GI50 (SW480 cells; SW480, 48 h): 2.1 ± 0.3 µM; GI50 (HCT116 cells; HCT-116, 48 h): 1.9 ± 0.1 µM
